Test results from patent US12157746B2, “Tetrahydro-1H-pyrazino[2,1-a]isoindolylquinoline compounds for the treatment of autoimmune disease” (F. HOFFMANN-LA ROCHE AG, priority 2018, dated 2024).

Assay: Human microsomal stability assay
Assay type: in vitro ADME
Settings: human liver microsomes 0.5 mg/mL, 37° C., pH 7.4, NADPH regenerating system, 0-30 minutes
Procedure: Human Microsomal Stability Assay
Human liver microsomes (Cat. NO.: 452117, Corning, USA) were preincubated with test compound for 10 minutes at 37° C. in 100 mM potassium phosphate buffer, pH 7.4. The reactions were initiated by adding NADPH regenerating system. The final incubation mixtures contained […] test compound, 0.5 mg/mL liver microsomal protein, 1 mM MgCl2, 1 mM NADP, 1 unit/mL isocitric dehydrogenase and 6 mM isocitric acid in 100 mM potassium phosphate buffer, pH 7.4. After incubation times of 0, 3, 6, 9, 15 and 30 minutes at 37° C., 300 μL of cold ACN (including internal standard) was added to 100 μL incubation mixture to terminate the reaction. Following precipitation and centrifugation, 100 μL supernatant will be taken out and added 300 uL water. The amount of compound remaining in the samples was determined by LC-MS/MS. Controls of no NADPH regenerating system at zero and 30 minutes were also prepared and analyzed. The results were categorized as: low (<7.0 mLJmin/kg), medium (7.0-16.2 mL/min/kg) and high (16.2-23.2 mLJmin/kg).

| CL (h) [mL/min/kg] | Structure (SMILES) |
| --- | --- |
| 7.7 | C[C@@H]1CN(c2ccc(C#N)c3ncccc23)C[C@@H]2c3ccc(OC4CNC4)cc3CN12 [Example 27, 5-[(4R,10bS)-8-(azetidin-3-yloxy)-4-methyl-3,4,6,10b-tetrahydro-1H-pyrazino[2,1-a]isoindol-2-yl]quinoline-8-carbonitrile] |
| 7.7 | C[C@@H]1CN(c2ccc(C#N)c3ncccc23)C[C@@H]2c3ccc(C(=O)N4CCNCC4)cc3CN12 [Example 86, 5-[(4R,10bS)-4-methyl-8-(piperazine-1-carbonyl)-3,4,6,10b-tetrahydro-1H-pyrazino[2,1-a]isoindol-2-yl]quinoline-8-carbonitrile] |
| 8.0 | C[C@@H]1CN(c2ccc(C#N)c3ncccc23)C[C@@H]2c3ccc(C(=O)N4C[C@@H]5C[C@H]4CN5)cc3CN12 [Example 87, 5-[(4R,10bS)-8-[(1S,4S)-2,5-diazabicyclo[2.2.1]heptane-2-carbonyl]-4-methyl-3,4,6,10b-tetrahydro-1H-pyrazino[2,1-a]isoindol-2-yl]quinoline-8-carbonitrile] |
| 8.0 | C[C@@H]1CN(c2ccc(C#N)n3nccc23)C[C@@H]2c3ccc(N4CCC(C)(N)CC4)cc3CN12 [Example 100, 4-[(4R,10bS)-8-(4-amino-4-methyl-1-piperidyl)-4-methyl-3,4,6,10b-tetrahydro-1H-pyrazino[2,1-a]isoindol-2-yl]pyrazolo[1,5-a]pyridine-7-carbonitrile] |
